In doi:10.1101/2023.10.20.563248v1 (biorxiv, 2023):

What was measured:
Conditions in all cases: 1 µM; inhibitor
[1] = molecular target: MTOR (Homo sapiens, UniProt P42345)
[2] = molecular target: SIK1 (Homo sapiens, UniProt P57059)
[3] = molecular target: CDK4/CycD3 (Homo sapiens, UniProt P11802)
[4] = molecular target: EPHB2 (Homo sapiens, UniProt P29323)
[5] = molecular target: CDK2/CycA2 (Homo sapiens, UniProt P24941)
[6] = molecular target: BMPR1B (Homo sapiens, UniProt O00238)
[7] = molecular target: TGFBR2 (Homo sapiens, UniProt P37173)
[8] = molecular target: EPHA2 (Homo sapiens, UniProt P29317)
EPHA2, sequence (P29317 whole entry): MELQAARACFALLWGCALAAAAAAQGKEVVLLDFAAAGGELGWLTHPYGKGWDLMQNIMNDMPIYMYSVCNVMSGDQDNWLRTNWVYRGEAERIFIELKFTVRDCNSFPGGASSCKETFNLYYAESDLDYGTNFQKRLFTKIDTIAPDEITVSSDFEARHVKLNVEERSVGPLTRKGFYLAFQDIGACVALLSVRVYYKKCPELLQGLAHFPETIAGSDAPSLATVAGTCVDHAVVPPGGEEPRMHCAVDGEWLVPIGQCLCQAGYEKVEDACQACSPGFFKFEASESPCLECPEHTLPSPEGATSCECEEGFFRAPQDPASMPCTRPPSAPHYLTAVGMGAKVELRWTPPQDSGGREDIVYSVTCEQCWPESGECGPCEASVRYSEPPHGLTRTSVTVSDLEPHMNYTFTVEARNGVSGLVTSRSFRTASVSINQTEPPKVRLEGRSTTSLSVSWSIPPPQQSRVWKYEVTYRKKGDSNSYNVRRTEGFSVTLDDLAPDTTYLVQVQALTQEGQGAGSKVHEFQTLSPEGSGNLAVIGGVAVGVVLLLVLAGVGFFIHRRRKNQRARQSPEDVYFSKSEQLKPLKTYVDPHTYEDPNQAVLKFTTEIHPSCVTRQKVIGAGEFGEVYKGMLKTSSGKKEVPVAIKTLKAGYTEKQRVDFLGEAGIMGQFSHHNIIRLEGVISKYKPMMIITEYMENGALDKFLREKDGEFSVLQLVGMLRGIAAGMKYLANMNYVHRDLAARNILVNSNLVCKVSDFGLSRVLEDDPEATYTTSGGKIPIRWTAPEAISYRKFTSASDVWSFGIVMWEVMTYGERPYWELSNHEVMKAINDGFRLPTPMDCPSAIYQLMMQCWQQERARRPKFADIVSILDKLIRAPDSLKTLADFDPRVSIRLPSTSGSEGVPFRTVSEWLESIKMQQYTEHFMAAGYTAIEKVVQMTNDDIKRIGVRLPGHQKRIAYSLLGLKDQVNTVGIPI

[9] = molecular target: MASTL (Homo sapiens, UniProt Q96GX5)
MASTL, sequence (Q96GX5 whole entry): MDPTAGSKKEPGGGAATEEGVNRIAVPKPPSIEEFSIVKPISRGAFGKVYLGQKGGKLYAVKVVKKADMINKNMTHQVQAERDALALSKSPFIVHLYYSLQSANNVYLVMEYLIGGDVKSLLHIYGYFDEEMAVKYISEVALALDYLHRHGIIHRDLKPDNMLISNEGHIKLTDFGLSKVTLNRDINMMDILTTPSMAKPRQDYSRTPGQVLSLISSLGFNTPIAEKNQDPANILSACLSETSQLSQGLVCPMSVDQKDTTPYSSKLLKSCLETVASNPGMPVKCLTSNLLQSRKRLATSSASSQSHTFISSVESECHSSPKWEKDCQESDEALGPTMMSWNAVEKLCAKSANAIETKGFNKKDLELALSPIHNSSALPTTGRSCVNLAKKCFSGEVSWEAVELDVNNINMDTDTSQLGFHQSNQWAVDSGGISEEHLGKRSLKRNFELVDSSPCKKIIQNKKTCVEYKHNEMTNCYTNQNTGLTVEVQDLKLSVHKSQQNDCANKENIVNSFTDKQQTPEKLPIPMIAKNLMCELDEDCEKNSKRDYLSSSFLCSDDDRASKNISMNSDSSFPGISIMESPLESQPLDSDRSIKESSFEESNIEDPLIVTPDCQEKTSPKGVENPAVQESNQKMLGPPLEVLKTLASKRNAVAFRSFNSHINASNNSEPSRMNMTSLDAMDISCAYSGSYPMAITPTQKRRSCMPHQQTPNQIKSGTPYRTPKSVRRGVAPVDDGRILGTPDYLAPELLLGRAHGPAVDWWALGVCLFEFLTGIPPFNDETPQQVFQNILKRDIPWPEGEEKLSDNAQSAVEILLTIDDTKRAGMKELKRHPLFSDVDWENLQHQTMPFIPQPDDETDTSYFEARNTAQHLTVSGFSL

[10] = molecular target: MEK5 (Homo sapiens, UniProt Q13163)
[11] = molecular target: RPS6KB2 (Homo sapiens, UniProt Q9UBS0)
[12] = molecular target: SGK1 (Homo sapiens, UniProt O00141)
[13] = molecular target: PRK2 (Homo sapiens, UniProt Q16513)
[14] = molecular target: EIF2AK2 (Homo sapiens, UniProt P19525)
[15] = molecular target: COT (Homo sapiens, UniProt P41279)
[16] = molecular target: SRPK2 (Homo sapiens, UniProt P78362)
[17] = molecular target: TYRO3 (Homo sapiens, UniProt Q06418)
TYRO3, sequence (Q06418 whole entry): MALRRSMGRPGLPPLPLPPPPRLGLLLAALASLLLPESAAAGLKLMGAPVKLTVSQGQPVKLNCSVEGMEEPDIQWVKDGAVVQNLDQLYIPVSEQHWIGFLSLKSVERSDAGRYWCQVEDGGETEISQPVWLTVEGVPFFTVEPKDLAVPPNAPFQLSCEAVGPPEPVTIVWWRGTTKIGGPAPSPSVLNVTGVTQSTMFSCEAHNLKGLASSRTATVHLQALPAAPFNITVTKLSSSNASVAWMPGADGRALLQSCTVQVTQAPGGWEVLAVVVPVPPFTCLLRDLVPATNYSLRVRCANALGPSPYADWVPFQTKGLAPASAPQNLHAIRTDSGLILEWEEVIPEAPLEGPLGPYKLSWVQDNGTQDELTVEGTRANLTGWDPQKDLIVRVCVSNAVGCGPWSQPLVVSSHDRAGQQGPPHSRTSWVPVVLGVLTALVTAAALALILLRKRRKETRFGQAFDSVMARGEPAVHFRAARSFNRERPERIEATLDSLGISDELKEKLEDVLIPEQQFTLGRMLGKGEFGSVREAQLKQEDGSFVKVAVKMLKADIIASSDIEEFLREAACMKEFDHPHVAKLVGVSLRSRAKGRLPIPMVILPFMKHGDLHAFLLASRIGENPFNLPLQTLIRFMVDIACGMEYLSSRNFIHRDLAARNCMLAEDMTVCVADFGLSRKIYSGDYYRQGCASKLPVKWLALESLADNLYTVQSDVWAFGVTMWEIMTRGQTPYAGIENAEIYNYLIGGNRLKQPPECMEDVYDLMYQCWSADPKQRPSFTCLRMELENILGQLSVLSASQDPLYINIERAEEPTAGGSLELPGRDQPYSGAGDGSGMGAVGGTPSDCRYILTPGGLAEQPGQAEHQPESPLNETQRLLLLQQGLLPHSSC

[18] = molecular target: CDK20/CycT1 (Homo sapiens, UniProt Q8IZL9)
[19] = molecular target: CAMKK2 (Homo sapiens, UniProt Q96RR4)
[20] = molecular target: MYLK3 (Homo sapiens, UniProt Q32MK0)
[21] = molecular target: TGFBR1 (Homo sapiens, UniProt P36897)
[22] = molecular target: IKKb (Homo sapiens, UniProt O14920)
[23] = molecular target: FGR (Homo sapiens, UniProt P09769)
[24] = molecular target: ERK7 (Homo sapiens, UniProt Q8TD08)
[25] = molecular target: BRAF (Homo sapiens, UniProt P15056)
[26] = molecular target: CHK2 (Homo sapiens, UniProt O96017)
[27] = molecular target: PHKG1 (Homo sapiens, UniProt Q16816)
[28] = molecular target: CAMK2G (Homo sapiens, UniProt Q13555)
CAMK2G, sequence (Q13555 whole entry): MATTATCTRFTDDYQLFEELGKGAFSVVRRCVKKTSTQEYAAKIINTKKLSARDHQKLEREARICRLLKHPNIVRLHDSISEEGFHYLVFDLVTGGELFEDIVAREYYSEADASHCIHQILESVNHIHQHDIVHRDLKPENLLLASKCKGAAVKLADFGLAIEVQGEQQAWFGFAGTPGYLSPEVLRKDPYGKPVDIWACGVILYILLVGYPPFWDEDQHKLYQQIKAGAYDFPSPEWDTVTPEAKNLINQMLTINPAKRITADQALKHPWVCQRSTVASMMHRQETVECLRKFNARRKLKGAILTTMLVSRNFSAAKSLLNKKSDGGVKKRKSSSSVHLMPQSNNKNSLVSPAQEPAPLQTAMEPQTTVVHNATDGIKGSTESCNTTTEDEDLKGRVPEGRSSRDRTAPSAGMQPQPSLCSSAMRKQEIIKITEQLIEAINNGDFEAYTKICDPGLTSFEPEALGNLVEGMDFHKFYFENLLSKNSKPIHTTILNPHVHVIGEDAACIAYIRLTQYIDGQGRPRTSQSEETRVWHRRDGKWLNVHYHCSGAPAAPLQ

[29] = molecular target: TAOK3 (Homo sapiens, UniProt Q9H2K8)
[30] = molecular target: LIMK2 (Homo sapiens, UniProt P53671)
LIMK2, sequence (P53671 whole entry): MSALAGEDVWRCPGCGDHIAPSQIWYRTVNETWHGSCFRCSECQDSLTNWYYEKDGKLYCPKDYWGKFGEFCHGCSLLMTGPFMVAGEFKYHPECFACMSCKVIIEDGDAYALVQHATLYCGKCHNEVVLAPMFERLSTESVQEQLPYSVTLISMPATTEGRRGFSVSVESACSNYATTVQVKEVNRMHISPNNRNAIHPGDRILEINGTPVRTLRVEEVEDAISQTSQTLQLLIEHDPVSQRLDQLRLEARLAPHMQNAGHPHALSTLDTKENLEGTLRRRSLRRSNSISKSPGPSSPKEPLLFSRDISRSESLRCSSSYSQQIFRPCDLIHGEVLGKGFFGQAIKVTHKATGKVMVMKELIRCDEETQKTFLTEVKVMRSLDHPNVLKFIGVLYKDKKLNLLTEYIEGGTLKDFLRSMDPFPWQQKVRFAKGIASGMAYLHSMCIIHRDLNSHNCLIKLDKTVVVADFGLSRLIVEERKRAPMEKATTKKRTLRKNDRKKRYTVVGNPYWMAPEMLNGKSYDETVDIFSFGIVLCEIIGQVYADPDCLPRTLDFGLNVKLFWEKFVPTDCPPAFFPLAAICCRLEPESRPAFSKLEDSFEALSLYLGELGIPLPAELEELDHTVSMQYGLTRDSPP

[31] = molecular target: TYK2 (Homo sapiens, UniProt P29597)

SIK1, sequence (P57059 whole entry): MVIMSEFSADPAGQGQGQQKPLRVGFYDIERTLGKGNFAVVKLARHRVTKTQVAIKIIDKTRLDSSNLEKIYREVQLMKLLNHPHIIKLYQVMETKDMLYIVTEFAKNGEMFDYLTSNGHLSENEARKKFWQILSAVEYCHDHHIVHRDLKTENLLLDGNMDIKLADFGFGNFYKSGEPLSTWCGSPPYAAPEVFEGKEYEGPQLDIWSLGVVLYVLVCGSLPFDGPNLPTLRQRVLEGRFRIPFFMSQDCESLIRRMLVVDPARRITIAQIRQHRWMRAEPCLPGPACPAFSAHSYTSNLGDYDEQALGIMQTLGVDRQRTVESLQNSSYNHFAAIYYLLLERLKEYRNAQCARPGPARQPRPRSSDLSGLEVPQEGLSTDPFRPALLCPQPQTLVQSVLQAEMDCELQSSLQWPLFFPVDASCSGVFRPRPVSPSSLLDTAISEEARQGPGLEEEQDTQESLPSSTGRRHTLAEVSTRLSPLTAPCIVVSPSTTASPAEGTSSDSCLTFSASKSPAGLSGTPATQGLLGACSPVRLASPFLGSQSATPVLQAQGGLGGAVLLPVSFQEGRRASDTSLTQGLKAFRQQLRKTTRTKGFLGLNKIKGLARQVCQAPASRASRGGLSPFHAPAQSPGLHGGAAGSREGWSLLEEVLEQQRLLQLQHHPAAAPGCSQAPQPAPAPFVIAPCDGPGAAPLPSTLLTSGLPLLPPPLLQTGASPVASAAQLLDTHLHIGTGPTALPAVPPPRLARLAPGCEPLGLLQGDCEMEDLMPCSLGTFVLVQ

21c Remaining activity, percent of control [%] [1]: 99.2%
21c Remaining activity, percent of control [%] [2]: 86.3%
21c Remaining activity, percent of control [%] [3]: 111.1%
21c Remaining activity, percent of control [%] [4]: 100.1%
21c Remaining activity, percent of control [%] [5]: 106.1%
21c Remaining activity, percent of control [%] [6]: 80.1%
21c Remaining activity, percent of control [%] [7]: 81.8%
21c Remaining activity, percent of control [%] [8]: 82.5%
21c Remaining activity, percent of control [%] [9]: 118.0%
21c Remaining activity, percent of control [%] [10]: 70.1%
21c Remaining activity, percent of control [%] [11]: 99.0%
21c Remaining activity, percent of control [%] [12]: 90.0%
21c Remaining activity, percent of control [%] [13]: 89.5%
21c Remaining activity, percent of control [%] [14]: 75.1%
21c Remaining activity, percent of control [%] [15]: 115.1%
21c Remaining activity, percent of control [%] [16]: 97.0%
21c Remaining activity, percent of control [%] [17]: 77.8%
21c Remaining activity, percent of control [%] [18]: 89.1%
21c Remaining activity, percent of control [%] [19]: 90.8%
21c Remaining activity, percent of control [%] [20]: 86.4%
21c Remaining activity, percent of control [%] [21]: 124.6%
21c Remaining activity, percent of control [%] [22]: 94.0%
21c Remaining activity, percent of control [%] [23]: 75.3%
21c Remaining activity, percent of control [%] [25]: 89.7%
21c Remaining activity, percent of control [%] [26]: 84.0%
21c Remaining activity, percent of control [%] [27]: 98.0%
21c Remaining activity, percent of control [%] [28]: 132.6%
21c Remaining activity, percent of control [%] [29]: 102.4%
21c Remaining activity, percent of control [%] [30]: 38.2%
21c Remaining activity, percent of control [%] [31]: 116.8%
Structure (SMILES): O=C1NCCCCCNc2nc(c3ccccc3n2)Nc2cc1[nH]n2 [21c, (Z)-3^1H-2,5,11-triaza-1(4,2)-quinazolina-3(3,5)-pyrazolacycloundecaphan-4-one]
21c Remaining activity, percent of control [%] [24]: 90.2%
